Measured values from patent US20050112573A1, “Method of detecting toxic substance” (priority 2001, published 2005).

Test system: yeast genes (level of expressed mRNA)
Test: DNA chip analysis of expressed mRNA of yeast genes after 2 h culture with a toxic chemical substance
Type: cell-based, Saccharomyces cerevisiae S288C
Conditions: for The level of expressed mRNA in the presence of chemical substance/ (ratio to absence of chemical substance): stress protein genes, DNA chip
Description: Yeast (Saccharomyces cerevtisiae S288C (α SUC2mal mel gap2 CUP1)) were cultured at 25° C. on YPD medium (yeast extract 1%, polypepton 2%, glucose 2%). One of toxic chemical substances was added to the cell at logarithmic growth phase, and the cell was further cultured for two hours. Cell was cultured without any chemical substance in the same condition, and was used as control. Concentrations of the chemical substances were defined to inhibit the growth of the yeast but not lead to death.
After the completion of cultivation, the culture was centrifuged to collect the cells. To the cells, sodium acetate buffer (50 mM sodium acetate, 10 mM EDTA, 1% SDS) was added, and the mixture was shaken at 65° C. for five minutes, followed by returning to room temperature, and obtaining the supernatant, which procedure was repeated two times. To the supernatant, ½ amount of a solution of phenol/chloroform was added, and the mixture was centrifuged to give a supernatant, which was added with an equal amount of chloroform, and the mixture was centrifuged to give a supernatant. To the supernatant, an equal amount of isopropanol containing 0.3 M sodium acetate was added, and the mixture was allowed to stand at room temperature for 30 minutes, after which the mixture was centrifuged to give a sediment of the whole RNAs. Seventy % ethanol was added to the sediment, and the mixture was again centrifuged to give a sediment, which was then dried and dissolved in water. mRNA was isolated from the whole RNAs as followings. In view of the fact that a poly A chain is attached to the 3′ terminus of mRNA, a polynucleotide having a poly T structure which was immobilized on the surface of latex beads was used to trap the mRNA, and then the mRNA was washed and eluted with spine column (Oligotex-dT30<Super>mRNA Purification Kit, Takara). Reverse transcription of the mRNA was conducted with a reverse transcriptase (Super Script II Reverse Transcriptase; catalogue No. 18064-014, GibcoBRL) using fluorescence-labeled nucleotides to give cDNAs that were introduced with Cy3-dUTP or Cy5-dUTP during the reverse transcription.
The labeled cDNAs were dissolved in TE buffer (10 mM Tris-HCl/1 mM EDTA, pH8.0), and the solution was dropped on the DNA chip containing the whole genes of yeast (DNA Chip Research Inc. Japan) so that the cDNAs were hybridized on the DNA chip at 65° C. for over 12 hours. The fluoresces intensity of the DNA chip was read with a scanner, and the ratio relative to the fluorescence intensity resulting from the absence of chemical substance was estimated as the following, which is shown in Tables 1 to 9: [formula]
In the Tables, “Intensity” indicated in the rightmost column is a value of the level of expressed mRNA of each gene in control cells as divided by the average level of the expressions of the whole genes.

## C[S+](C)[O-] [(15), dimethylsulfoxide]
Gene YOR267C
  The level of expressed mRNA in the presence of chemical substance/absence: YOR267C: 1.3
Gene YOR325W
  The level of expressed mRNA in the presence of chemical substance/absence: YOR325W: 0.7
Gene YOR336W
  level of expressed mRNA in the presence of chemical substance/in its absence: 0.6
Gene YOR344C
  level of expressed mRNA in the presence of chemical substance/in its absence: 0.7
Gene YOR347C
  level of expressed mRNA in the presence of chemical substance/in its absence: 2.0
Gene YPL005W
  The level of expressed mRNA in the presence of chemical substance/absence: YPL005W: 1.2
Gene YPL017C
  level of expressed mRNA in the presence of chemical substance/in its absence: 1.0
Gene YPL107W, DNA chip fluorescence ratio to control without chemical, 2 hours culture with chemical, growth-inhibiting non-lethal concentration
  The level of expressed mRNA in the presence of chemical substance / the level in the absence of chemical substance, yeast gene YPL107W: 0.7
Gene YPL138C, DNA chip fluorescence ratio to control without chemical, 2 hours culture with chemical, growth-inhibiting non-lethal concentration
  The level of expressed mRNA in the presence of chemical substance / the level in the absence of chemical substance, yeast gene YPL138C: 2.7
Gene YPL150W
  The level of expressed mRNA in the presence of chemical substance/absence: YPL150W: 1.1
Gene YPL151C
  The level of expressed mRNA in the presence of chemical substance/absence: YPL151C: 1.8
Gene YPL152W
  The level of expressed mRNA in the presence of chemical substance/absence: YPL152W: 2.3
Gene YPL168W
  The level of expressed mRNA in the presence of chemical substance/absence: YPL168W: 0.8
Gene YPL180W
  The level of expressed mRNA in the presence of chemical substance/absence: YPL180W: 0.7
Gene YPL188W
  The level of expressed mRNA in the presence of chemical substance/absence: YPL188W: 0.8
Gene YPL221W
  The level of expressed mRNA in the presence of chemical substance/absence: YPL221W: 1.0
Gene YPL225W
  The level of expressed mRNA in the presence of chemical substance/absence: YPL225W: 0.9
Gene YPL249C
  The level of expressed mRNA in the presence of chemical substance/absence: YPL249C: 1.0
Gene YPL260W
  The level of expressed mRNA in the presence of chemical substance/absence: YPL260W: 1.3
Gene YPL265W
  level of expressed mRNA in the presence of chemical substance/in its absence: 1.2
Gene YPR006C
  level of expressed mRNA in the presence of chemical substance/in its absence: 0.7
Gene YPR026W
  level of expressed mRNA in the presence of chemical substance/in its absence: 3.1
Gene YPR049C
  The level of expressed mRNA in the presence of chemical substance/absence: YPR049C: 1.5
Gene YPR061C
  The level of expressed mRNA in the presence of chemical substance/absence: YPR061C: 0.4
Gene YPR093C
  The level of expressed mRNA in the presence of chemical substance/absence: YPR093C: 0.8
Gene YPR146C
  The level of expressed mRNA in the presence of chemical substance/absence: YPR146C: 0.9
Gene YPR148C
  The level of expressed mRNA in the presence of chemical substance/absence: YPR148C: 1.7
Gene YPR150W
  The level of expressed mRNA in the presence of chemical substance/absence: YPR150W: 0.9
Gene YPR158W
  The level of expressed mRNA in the presence of chemical substance/absence: YPR158W: 0.9
Gene YPR169W
  The level of expressed mRNA in the presence of chemical substance/absence: YPR169W: 0.9
Gene YPR172W
  The level of expressed mRNA in the presence of chemical substance/absence: YPR172W: 1.5
Gene YPR174C
  The level of expressed mRNA in the presence of chemical substance/absence: YPR174C: 1.2
Yeast gene YAR010C
  The level of expressed mRNA in the presence of chemical substance/The level of expressed mRNA in the absence of chemical substance: 1.8
Yeast gene YBL005W-A
  The level of expressed mRNA in the presence of chemical substance/The level of expressed mRNA in the absence of chemical substance: 0.9
Yeast gene YBL038W, mitochondria-located protein genes, 2 h culture with chemical
  The level of expressed mRNA in the presence of chemical substance/ (ratio to absence), gene YBL038W: 0.7
Yeast gene YBL041W
  The level of expressed mRNA in the presence of chemical substance/The level of expressed mRNA in the absence of chemical substance: 1.3
Yeast gene YBL043W
  The level of expressed mRNA in the presence of chemical substance/The level of expressed mRNA in the absence of chemical substance: 1.8
Yeast gene YBL078C
  The level of expressed mRNA in the presence of chemical substance/The level of expressed mRNA in the absence of chemical substance: 2.5
Yeast gene YBL093C
  The level of expressed mRNA in the presence of chemical substance/ (ratio to absence of chemical substance): 0.5
Yeast gene YBR036C, ratio of DNA chip fluorescence intensity to that without chemical substance
  The level of expressed mRNA in the presence of chemical substance/ (in its absence), gene YBR036C: 1.5
Yeast gene YBR044C
  The level of expressed mRNA in the presence of chemical substance/ (ratio to absence of chemical substance): 0.9
Yeast gene YBR122C, mitochondria-located protein genes, 2 h culture with chemical
  The level of expressed mRNA in the presence of chemical substance/ (ratio to absence), gene YBR122C: 0.7
Yeast gene YBR214W
  The level of expressed mRNA in the presence of chemical substance/The level of expressed mRNA in the absence of chemical substance: 5.1
Yeast gene YBR251W, mitochondria-located protein genes, 2 h culture with chemical
  The level of expressed mRNA in the presence of chemical substance/ (ratio to absence), gene YBR251W: 0.8
Yeast gene YBR298C, ratio of DNA chip fluorescence intensity to that without chemical substance
  The level of expressed mRNA in the presence of chemical substance/ (in its absence), gene YBR298C: 0.2
Yeast gene YCL020W
  The level of expressed mRNA in the presence of chemical substance/The level of expressed mRNA in the absence of chemical substance: 2.5
Yeast gene YCL027W
  The level of expressed mRNA in the presence of chemical substance/The level of expressed mRNA in the absence of chemical substance: 3.6
Yeast gene YCR004C
  The level of expressed mRNA in the presence of chemical substance/The level of expressed mRNA in the absence of chemical substance: 0.8
Yeast gene YCR046C, mitochondria-located protein genes, 2 h culture with chemical
  The level of expressed mRNA in the presence of chemical substance/ (ratio to absence), gene YCR046C: 1.4
Yeast gene YCR071C
  The level of expressed mRNA in the presence of chemical substance/The level of expressed mRNA in the absence of chemical substance: 1.1
Yeast gene YCR083W, mitochondria-located protein genes, 2 h culture with chemical
  The level of expressed mRNA in the presence of chemical substance/ (ratio to absence), gene YCR083W: 1.0
Yeast gene YCR083W
  The level of expressed mRNA in the presence of chemical substance/ (ratio to absence of chemical substance): 1.0
Yeast gene YCR088W
  The level of expressed mRNA in the presence of chemical substance/The level of expressed mRNA in the absence of chemical substance: 2.8
Yeast gene YDL008W
  The level of expressed mRNA in the presence of chemical substance/The level of expressed mRNA in the absence of chemical substance: 0.7
Yeast gene YDL067C, energy system protein genes, 2 h culture with the chemical, ratio to control without chemical
  The level of expressed mRNA in the presence of chemical substance/ in its absence, gene YDL067C: 0.7
Yeast gene YDL067C, mitochondria-located protein genes, 2 h culture with chemical
  The level of expressed mRNA in the presence of chemical substance/ (ratio to absence), gene YDL067C: 0.7
Yeast gene YDL078C, energy system protein genes, 2 h culture with the chemical, ratio to control without chemical
  The level of expressed mRNA in the presence of chemical substance/ in its absence, gene YDL078C: 0.5
